How the values were obtained:
[1] = Fasting plasma glucose levels in alloxan-induced diabetic rabbits; type: in vivo, Japanese white rabbits; conditions: 3 mg/kg orally once a day
Procedure: (§1) Diabetic model animals made by administrating alloxan (50 mg/kg) into Japanese white rabbits (body weight: 2.0 to 3.3 kg) were divided into 2 groups; one was a mitiglinide-treated group (n=5) in which mitiglinide calcium hydrate (3 mg/kg) suspended in 0.5% carboxymethylcellulose was administered orally once a day before feeding for 6 weeks from the next day of alloxan-administration to the day before experimental termination, and the other was the control group (n=4) in which 0.5% carboxymethylcellulose was administered in the same way. Two weeks after the alloxan-administration, the endothelium of the right common carotid artery was scraped using a balloon catheter, and then, the incision on the vessel wall was sutured with care not to cause stenosis. The left common carotid artery was used as a side of Sham-operation (the normal group). Four (4) weeks after the operation of scraping endothelium of a blood vessel, the bilateral common carotid arteries were removed, and the intimal, medial and luminal areas of the sections of the arteries were measured using a morphometric analyzer. Fasting plasma glucose levels were measured 2 weeks after the alloxan-administration (on the day of scraping the endothelium) and 6 weeks after the alloxan-administration (on the day of removing the arteries.

[2] = system: intimal hyperplasia of the common carotid artery; assay: Intimal hyperplasia of a blood vessel caused by scraping endothelium of common carotid artery in alloxan-induced diabetic rabbits; type: in vivo, Japanese white rabbits; conditions: 3 mg/kg orally once a day for 6 weeks; arteries removed 4 weeks after scraping endothelium; compared to the control group; FIG. 1
Procedure: Effect on Intimal Hyperplasia of a Blood vessel Caused by Scraping Endothelium of Common Carotid Artery in Rabbits
as §1, with “The left common carotid artery was used as a side of Sham-operation (the normal group).” left out

O=C(O)[C@H](CC(=O)N1C[C@H]2CCCC[C@H]2C1)Cc1ccccc1 [mitiglinide calcium hydrate, bis{(2S)-2-benzyl-3-(cis-hexahydro-2-isoindolinylcarbonyl)-propionic acid}calcium dihydrate]
influence on fasting plasma glucose level ([1]; 2 weeks after alloxan-administration, FIG. 2): no influence | influence on fasting plasma glucose level ([1]; 6 weeks after alloxan-administration, FIG. 3): no influence | inhibitory effect on intimal hyperplasia (ratio of intimal area to medial area) [2]: significant inhibitory effect

From patent US20070254938A1, “Preventive or Therapeutic Agent for Vascular Intimal Proliferative Disease” (priority 2004, published 2007)
